Data as given in patent US11939320B2, “Modulators of the integrated stress pathway” (Calico Life Sciences LLC, priority 2017, dated 2024).

system: HEK293T cells carrying the ATF4 luciferase reporter; assay: ATF4-Luc assay (in vitro model of VWMD); format: cell-based; settings: Homo sapiens, HEK-293T; HEK293T cells with ATF4 5'-UTR firefly luciferase reporter; 1 μg/mL tunicamycin; 7 hours; One Glo luminescence
Method: In order to test exemplary compounds of the invention in a cellular context, a stable VWMD cell line was first constructed. The ATF4 reporter was prepared by fusing the human full-length ATF4 5′-UTR (NCBI Accession No. BC022088.2) in front of the firefly luciferase (FLuc) coding sequence lacking the initiator methionine as described in Sidrauski et al (eLife 2013). The construct was used to produce recombinant retroviruses using standard methods and the resulting viral supernatant was used to transduce HEK293T cells, which were then subsequently selected with puromycin to generate a stable cell line.
HEK293T cells carrying the ATF4 luciferase reporter were plated on polylysine coated 384-well plates (Greiner Bio-one) at 30,000 cells per well. Cells were treated the next day with 1 μg/mL tunicamycin and 200 nM of a compound of Formula (I) for 7 hours. Luminescence was measured using One Glo (Promega) as specified by the manufacturer. Cells were maintained in DMEM with L-glutamine supplemented with 10% heat-inactivated FBS (Gibco) and Antibiotic-Antimycotic solution (Gibco).
Table 2 below summarizes the EC50 data obtained using the ATF4-Luc assay for exemplary compounds of the invention.

| Compound | EC50 |
| --- | --- |
| O=C(COc1ccc(Cl)c(F)c1)N[C@H]1CC[C@H](C(=O)Nc2ccc(OC(F)F)nc2)CC1 [Compound 109, (1r,4r)-4-[2-(4-chloro-3-fluorophenoxy)acetamido]-N-[6-(difluoromethoxy)pyridin-3-yl]cyclohexane-1-carboxamide] | < 10 nM |
| O=C(COc1ccc(Cl)c(F)c1)N[C@H]1CC[C@H](C(=O)N2CCC(c3ccc(Cl)cc3)CC2)CC1 [Compound 128, 2-(4-chloro-3-fluorophenoxy)-N-{(1r,4r)-4-[4-(4-chlorophenyl)piperidine-1-carbonyl]cyclohexyl}acetamide] | > 2000 nM |
| O=C(COc1ccc(Cl)c(Cl)c1)N[C@H]1CC[C@H](C(=O)NCc2ccc(C(F)(F)F)nc2)CC1 [Compound 100, (1r,4r)-4-[2-(3,4-dichlorophenoxy)acetamido]-N-{[6-(trifluoromethyl)pyridin-3-yl]methyl}cyclohexane-1-carboxamide] | 10 to 50 nM |
| O=C(COc1ccc(Cl)c(F)c1)N[C@H]1C[C@H](C(=O)Nc2ccc(OC(F)F)nc2)C1 [Compound 168, (1r,3r)-3-[2-(4-chloro-3-fluorophenoxy)acetamido]-N-[6-(difluoromethoxy)pyridin-3-yl]cyclobutane-1-carboxamide] | > 2000 nM |
| O=C(COc1ccc(Cl)c(F)c1)N[C@@H]1CC[C@@H](C(=O)NCc2ccc(OC(F)(F)F)cc2)OC1 [Compound 157, (2S,5R)-5-[2-(4-chloro-3-fluorophenoxy)acetamido]-N-{[4-(trifluoromethoxy)phenyl]methyl}oxane-2-carboxamide] | 50 to 250 nM |
| O=C(COc1ccc(Cl)c(Cl)c1)N[C@H]1CC[C@H](C(=O)N(CCO)Cc2ccc(Cl)c(F)c2)CC1 [Compound 180, (1r,4r)-N-[(4-chloro-3-fluorophenyl)methyl]-4-[2-(3,4-dichlorophenoxy)acetamido]-N-(2-hydroxyethyl)cyclohexane-1-carboxamide] | 500 to 2000 nM |
| O=C(COc1ccc(Cl)c(F)c1)N[C@H]1CC[C@H](C(=O)N2CCN(c3ccc(Cl)cc3)C(=O)C2)CC1 [Compound 125, 2-(4-chloro-3-fluorophenoxy)-N-{(1r,4r)-4-[4-(4-chlorophenyl)-3-oxopiperazine-1-carbonyl]cyclohexyl}acetamide] | 250 to 500 nM |
| O=C(COc1ccc(Cl)c(F)c1)N[C@H]1CC[C@H](C(=O)N2CCN(c3ccc(Cl)cc3)CC2)CC1 [Compound 127, 2-(4-chloro-3-fluorophenoxy)-N-{(1r,4r)-4-[4-(4-chlorophenyl)piperazine-1-carbonyl]cyclohexyl}acetamide] | > 2000 nM |
| O=C(COc1ccc(Cl)cc1)N[C@H]1CC[C@H](C(=O)NCc2nc3cc(F)c(F)cc3[nH]2)CC1 [Compound 155, (1r,4r)-4-[2-(4-chlorophenoxy)acetamido]-N-[(5,6-difluoro-1H-benzimidazol-2-yl)methyl]cyclohexane-1-carboxamide] | 500 to 2000 nM |
| CN(Cc1cccnc1)C(=O)[C@H]1CC[C@H](NC(=O)COc2ccc(Cl)c(Cl)c2)CC1 [Compound 106, (1r,4r)-4-[2-(3,4-dichlorophenoxy)acetamido]-N-methyl-N-[(pyridin-3-yl)methyl]cyclohexane-1-carboxamide] | > 2000 nM |
| O=C(COc1ccc(Cl)c(F)c1)N[C@H]1CC[C@H](C(=O)Nc2ccc(OCC(F)(F)F)nc2)CC1 [Compound 115, (1r,4r)-4-[2-(4-chloro-3-fluorophenoxy)acetamido]-N-[6-(2,2,2-trifluoroethoxy)pyridin-3-yl]cyclohexane-1-carboxamide] | 500 to 2000 nM |
| Cc1cc(CNC(=O)[C@@H]2CC[C@@H](NC(=O)COc3ccc(Cl)c(F)c3)CO2)n(C)n1 [Compound 136, (2S,5R)-5-[2-(4-chloro-3-fluorophenoxy)acetamido]-N-[(1,3-dimethyl-1H-pyrazol-5-yl)methyl]oxane-2-carboxamide] | > 2000 nM |
| O=C(COc1ccc(Cl)c(F)c1)N[C@@H]1CC[C@@H](C(=O)NCc2ccc(Cl)c(F)c2)OC1 [Compound 185, (2S,5R)-5-[2-(4-chloro-3-fluorophenoxy)acetamido]-N-[(4-chloro-3-fluorophenyl)methyl]oxane-2-carboxamide] | 10 to 50 nM |
| O=C(COc1ccc(Cl)c(F)c1)N[C@@H]1CC[C@@H](C(=O)N2CC(c3ccc(Cl)cc3)C2)OC1 [Compound 160, 2-(4-chloro-3-fluorophenoxy)-N-{(3R,6S)-6-[3-(4-chlorophenyl)azetidine-1-carbonyl]oxan-3-yl}acetamide] | 10 to 50 nM |
| O=C(COc1ccc(C(F)(F)F)nc1)N[C@H]1CC[C@H](C(=O)NCc2nc3cc(Cl)ccc3[nH]2)CC1 [Compound 147, (1r,4r)-N-[(5-chloro-1H-benzimidazol-2-yl)methyl]-4-(2-{[6-(trifluoromethyl)pyridin-3-yl]oxy}acetamido)cyclohexane-1-carboxamide] | > 2000 nM |
| O=C(COc1ccc(Cl)c(Cl)c1)N[C@H]1CC[C@H](C(=O)NCc2ccc(OC(F)F)cn2)CC1 [Compound 120, (1r,4r)-4-[2-(3,4-dichlorophenoxy)acetamido]-N-{[5-(difluoromethoxy)pyridin-2-yl]methyl}cyclohexane-1-carboxamide] | 10 to 50 nM |
| N#Cc1ccc(CNC(=O)[C@H]2CC[C@H](NC(=O)COc3ccc(Cl)c(Cl)c3)CC2)nc1 [Compound 173, (1r,4r)-N-[(5-cyanopyridin-2-yl)methyl]-4-[2-(3,4-dichlorophenoxy)acetamido]cyclohexane-1-carboxamide] | 50 to 250 nM |
| O=C(COc1ccc(Cl)c(F)c1)N[C@H]1CC[C@H](C(=O)N2CC3(CN(c4ccc(Cl)c(F)c4)C3)C2)CC1 [Compound 124, 2-(4-chloro-3-fluorophenoxy)-N-{(1r,4r)-4-[6-(4-chloro-3-fluorophenyl)-2,6-diazaspiro[3.3]heptane-2-carbonyl]cyclohexyl}acetamide] | > 2000 nM |
| O=C(COc1ccc(Cl)c(F)c1)N[C@H]1CC[C@H](C(=O)NCc2ccc(C(F)(F)F)cn2)OC1 [Compound 159, (2R,5S)-5-[2-(4-chloro-3-fluorophenoxy)acetamido]-N-{[5-(trifluoromethyl)pyridin-2-yl]methyl}oxane-2-carboxamide] | 10 to 50 nM |
| O=C(COc1ccc(Cl)c(F)c1)N[C@@H]1CC[C@@H](C(=O)NCc2cnc(C(F)(F)F)nc2)OC1 [Compound 139, (2S,5R)-5-[2-(4-chloro-3-fluorophenoxy)acetamido]-N-{[2-(trifluoromethyl)pyrimidin-5-yl]methyl}oxane-2-carboxamide] | 250 to 500 nM |
| O=C(COc1ccc(Cl)c(F)c1)N[C@H]1CC[C@H](C(=O)N2Cc3ccc(Cl)cc3C2)CC1 [Compound 132, N-[(1r,4r)-4-(5-chloro-1,3-dihydro-2H-isoindole-2-carbonyl)cyclohexyl]-2-(4-chloro-3-fluorophenoxy)acetamide] | 10 to 50 nM |
| O=C(COc1ccc(Cl)c(F)c1)N[C@H]1CC[C@H](C(=O)Nc2ccc(Cl)c(F)c2)CC1 [Compound 111, (1r,4r)-4-[2-(4-chloro-3-fluorophenoxy)acetamido]-N-(4-chloro-3-fluorophenyl)cyclohexane-1-carboxamide] | 10 to 50 nM |
| O=C(COc1ccc(Cl)c(F)c1)N[C@@H]1CC[C@@H](C(=O)NC2(c3ccc(Cl)cc3)CC2)OC1 [Compound 141, (2S,5R)-5-[2-(4-chloro-3-fluorophenoxy)acetamido]-N-[1-(4-chlorophenyl)cyclopropyl]oxane-2-carboxamide] | > 2000 nM |
| O=C(COc1ccc(Cl)c(Cl)c1)N[C@H]1CC[C@H](C(=O)NCc2ccc(C(F)F)cn2)CC1 [Compound 184, (1r,4r)-4-[2-(3,4-dichlorophenoxy)acetamido]-N-{[5-(difluoromethyl)pyridin-2-yl]methyl}cyclohexane-1-carboxamide] | 10 to 50 nM |
| O=C(COc1ccc(Cl)c(F)c1)NC1CCC(C(=O)NCc2ccc(C(F)(F)F)cn2)OC1 (centres unmarked) [Compound 166, 5-[2-(4-chloro-3-fluorophenoxy)acetamido]-N-{[5-(trifluoromethyl)pyridin-2-yl]methyl}oxane-2-carboxamide] | > 2000 nM |
| O=C(N[C@@H]1CC[C@@H](C(=O)NCc2ccc(C(F)(F)F)cn2)OC1)C1CNc2cc(Cl)ccc2O1 (mixture of isomers) [Compound 165, 6-chloro-N-[(3R,6S)-6-({[5-(trifluoromethyl)pyridin-2-yl]methyl}carbamoyl)oxan-3-yl]-3,4-dihydro-2H-1,4-benzoxazine-2-carboxamide] | 50 to 250 nM |
| O=C(COc1ccc(Cl)c(F)c1)N[C@H]1CC[C@H](C(=O)N2CC(O)(c3ccc(Cl)cc3)C2)CC1 [Compound 130, 2-(4-chloro-3-fluorophenoxy)-N-{(1r,4r)-4-[3-(4-chlorophenyl)-3-hydroxyazetidine-1-carbonyl]cyclohexyl}acetamide] | 50 to 250 nM |
| O=C(COc1ccc(Cl)c(F)c1)N[C@@H]1CC[C@@H](C(=O)NCc2nc3cc(F)c(F)cc3[nH]2)OC1 [Compound 156, (2S,5R)-5-[2-(4-chloro-3-fluorophenoxy)acetamido]-N-[(5,6-difluoro-1H-benzimidazol-2-yl)methyl]oxane-2-carboxamide] | 50 to 250 nM |
| O=C(COc1ccc(Cl)c(F)c1)N[C@@H]1CC[C@@H](C(=O)NCc2ccc(C(F)(F)F)cc2)OC1 [Compound 158, (2S,5R)-5-[2-(4-chloro-3-fluorophenoxy)acetamido]-N-{[4-(trifluoromethyl)phenyl]methyl}oxane-2-carboxamide] | 50 to 250 nM |
